Tested on: aMCI subjects
Assay: explicit 3-alternative forced choice task (lure images), cognitive performance
Assay type: in vivo, human
Conditions: 125 mg twice a day for two weeks, versus placebo
Description: There are various tests known in the art for assessing cognitive function in humans, for example and without limitation, the clinical global impression of change scale (CIBIC-plus scale); the Mini Mental State Exam (MMSE); the Neuropsychiatric Inventory (NPI); the Clinical Dementia Rating Scale (CDR); the Cambridge Neuropsychological Test Automated Battery (CANTAB); the Sandoz Clinical Assessment-Geriatric (SCAG), the Buschke Selective Reminding Test (Buschke and Fuld, 1974); the Verbal Paired Associates subtest; the Logical Memory subtest; the Visual Reproduction subtest of the Wechsler Memory Scale-Revised (WMS-R) (Wechsler, 1997); the Benton Visual Retention Test, or MATRICS consensus neuropsychological test battery which includes tests of working memory, speed of processing, attention, verbal learning, visual learning, reasoning and problem solving and social cognition. […]
As described above, the drug treatment period is the two weeks preceding Visit 1 or 2 (with the two week period preceding the other Visit being the placebo phase). For the subjects receiving the drug treatment, half a scored 250 mg tablet of levetiracetam is used to achieve a dose of […], which is approximately 3.6 mg/kg/day (assuming an average adult human weight of 70 kg). […]

CC[C@@H](C(N)=O)N1CCCC1=O [levetiracetam, (2S)-2-(2-oxopyrrolidin-1-yl) butanamide]
performance in the explicit 3-alternative forced choice task: improves significantly
